From paper PMC4184702 (Pharmacology Research & Perspectives, 2014)

How the values were obtained:
5-HT3 = target: T1, 5-HT3 (Homo sapiens, UniProt P46098); experiment: PDSP primary binding, 5-HT3; settings: n = 4, read-out: Inhibition (primary binding competition efficacy), 5-HT3
T1 construct: purchased NIMH Psychoactive Drug Screening Program (PDSP)
Description: (§1) For experimental details, please refer to the Psychoactive Drug Screening Program (PDSP) web site http://pdsp.med.unc.edu/.
(§2) ^a The default concentration for primary binding experiments is 10 µM (n = 4). ^b Negative inhibition represents a stimulation of binding. ^c BZPR: Benzodiazepine Receptors (rat brain site). ^d DOR: Delta Opioid Receptor; KOR: Kappa Opioid Receptor; MOR: Mu Opioid Receptor. ^e DAT: Dopamine Transporter; NET: Norepinephrine Transporter; SERT: Serotonin Transporter. ^f NMDA: N-methyl-D-aspartate receptor.

D4 dopamine receptor = target: T2, D4 dopamine receptor (Homo sapiens, UniProt P21917); experiment: PDSP primary binding, D4; settings: n = 4, read-out: Inhibition (primary binding competition efficacy), D4
T2 construct: purchased NIMH Psychoactive Drug Screening Program (PDSP)
T2 sequence (P21917 whole entry): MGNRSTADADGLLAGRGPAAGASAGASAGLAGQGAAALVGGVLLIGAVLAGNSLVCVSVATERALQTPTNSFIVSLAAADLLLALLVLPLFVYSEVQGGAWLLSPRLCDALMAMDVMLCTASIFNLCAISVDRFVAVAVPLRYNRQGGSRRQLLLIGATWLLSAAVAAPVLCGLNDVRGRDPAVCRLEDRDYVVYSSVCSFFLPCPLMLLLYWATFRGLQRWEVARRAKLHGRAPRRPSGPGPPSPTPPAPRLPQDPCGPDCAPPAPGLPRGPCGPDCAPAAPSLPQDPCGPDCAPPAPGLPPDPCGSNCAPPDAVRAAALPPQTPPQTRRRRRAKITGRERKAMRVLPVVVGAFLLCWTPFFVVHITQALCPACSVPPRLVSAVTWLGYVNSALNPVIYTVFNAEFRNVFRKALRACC
Description: as §1, §2

D5 dopamine receptor = target: T3, D5 dopamine receptor (Homo sapiens, UniProt P21918); experiment: PDSP primary binding, D5; settings: n = 4, read-out: Inhibition (primary binding competition efficacy), D5
T3 construct: purchased NIMH Psychoactive Drug Screening Program (PDSP)
T3 sequence (P21918 whole entry): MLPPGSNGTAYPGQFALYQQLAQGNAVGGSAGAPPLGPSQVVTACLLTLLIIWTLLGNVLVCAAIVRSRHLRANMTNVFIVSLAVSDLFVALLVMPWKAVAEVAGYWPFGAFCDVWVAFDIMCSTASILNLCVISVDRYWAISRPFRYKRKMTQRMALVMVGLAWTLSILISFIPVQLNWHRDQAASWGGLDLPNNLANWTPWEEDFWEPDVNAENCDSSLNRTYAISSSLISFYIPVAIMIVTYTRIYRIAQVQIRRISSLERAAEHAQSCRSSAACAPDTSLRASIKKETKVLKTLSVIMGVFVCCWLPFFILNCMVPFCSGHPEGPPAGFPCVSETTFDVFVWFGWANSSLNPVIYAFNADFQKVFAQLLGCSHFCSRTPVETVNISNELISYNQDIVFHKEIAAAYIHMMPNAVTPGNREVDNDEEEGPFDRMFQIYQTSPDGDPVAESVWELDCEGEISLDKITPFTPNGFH
Description: as §1, §2

[1] = target: T4, DOR: Delta Opioid Receptor (Homo sapiens, UniProt P41143); experiment: PDSP primary binding, DOR; settings: n = 4, read-out: Inhibition (primary binding competition efficacy), DOR
T4 construct: purchased NIMH Psychoactive Drug Screening Program (PDSP)
T4 sequence (P41143 whole entry): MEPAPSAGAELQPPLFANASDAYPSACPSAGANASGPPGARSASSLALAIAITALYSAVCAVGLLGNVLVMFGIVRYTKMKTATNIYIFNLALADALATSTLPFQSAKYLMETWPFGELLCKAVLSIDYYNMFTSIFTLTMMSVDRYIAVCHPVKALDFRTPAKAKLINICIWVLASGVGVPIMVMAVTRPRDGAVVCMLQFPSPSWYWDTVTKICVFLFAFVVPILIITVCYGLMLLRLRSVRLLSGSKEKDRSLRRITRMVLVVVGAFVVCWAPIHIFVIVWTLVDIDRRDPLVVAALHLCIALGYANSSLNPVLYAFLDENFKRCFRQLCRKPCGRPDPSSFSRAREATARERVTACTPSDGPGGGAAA
Description: as §1, §2

[2] = target: T5, KOR: Kappa Opioid Receptor (Homo sapiens, UniProt P41145); experiment: PDSP primary binding, KOR; settings: n = 4, read-out: Inhibition (primary binding competition efficacy), KOR
T5 construct: purchased NIMH Psychoactive Drug Screening Program (PDSP)
Description: as §1, §2

M2 muscarinic receptor = target: T6, M2 muscarinic receptor (Homo sapiens, UniProt P08172); experiment: PDSP primary binding, M2; settings: n = 4, read-out: Inhibition (primary binding competition efficacy), M2
T6 construct: purchased NIMH Psychoactive Drug Screening Program (PDSP)
Description: as §1, §2

M4 muscarinic receptor = target: T7, M4 muscarinic receptor (Homo sapiens, UniProt P08173); experiment: PDSP primary binding, M4; settings: n = 4, read-out: Inhibition (primary binding competition efficacy), M4
T7 construct: purchased NIMH Psychoactive Drug Screening Program (PDSP)
T7 sequence (P08173 whole entry): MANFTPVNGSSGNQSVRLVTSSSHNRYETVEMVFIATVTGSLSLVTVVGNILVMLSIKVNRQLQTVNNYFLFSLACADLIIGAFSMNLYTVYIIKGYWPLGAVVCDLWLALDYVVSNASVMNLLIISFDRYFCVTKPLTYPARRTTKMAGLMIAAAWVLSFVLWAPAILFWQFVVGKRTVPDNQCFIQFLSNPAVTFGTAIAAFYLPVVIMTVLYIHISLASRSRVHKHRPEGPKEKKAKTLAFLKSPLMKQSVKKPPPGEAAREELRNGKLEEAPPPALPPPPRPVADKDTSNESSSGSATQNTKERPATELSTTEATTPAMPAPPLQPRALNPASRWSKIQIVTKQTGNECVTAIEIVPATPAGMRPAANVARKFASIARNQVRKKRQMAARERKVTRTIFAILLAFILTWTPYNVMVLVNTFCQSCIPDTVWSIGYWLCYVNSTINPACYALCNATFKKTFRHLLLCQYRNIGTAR
Description: as §1, §2

H1 histamine receptor = target: T8, H1 histamine receptor (Homo sapiens, UniProt P35367); experiment: PDSP primary binding, H1; settings: n = 4, read-out: Inhibition (primary binding competition efficacy), H1
T8 construct: purchased NIMH Psychoactive Drug Screening Program (PDSP)
T8 sequence (P35367 whole entry): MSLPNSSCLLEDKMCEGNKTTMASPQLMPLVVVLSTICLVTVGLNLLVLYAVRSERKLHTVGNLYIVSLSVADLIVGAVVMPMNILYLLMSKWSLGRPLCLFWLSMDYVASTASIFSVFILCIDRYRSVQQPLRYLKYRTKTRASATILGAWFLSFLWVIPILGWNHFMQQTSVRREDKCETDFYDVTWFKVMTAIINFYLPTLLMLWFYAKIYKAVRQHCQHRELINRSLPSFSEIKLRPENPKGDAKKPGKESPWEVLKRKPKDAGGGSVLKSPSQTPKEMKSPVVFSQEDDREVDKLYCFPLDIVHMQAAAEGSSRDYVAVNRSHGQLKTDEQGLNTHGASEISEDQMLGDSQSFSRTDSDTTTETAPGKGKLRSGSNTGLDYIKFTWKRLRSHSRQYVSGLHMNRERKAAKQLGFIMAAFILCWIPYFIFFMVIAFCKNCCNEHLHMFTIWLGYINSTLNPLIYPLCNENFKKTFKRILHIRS
Description: as §1, §2

H2 histamine receptor = target: T9, H2 histamine receptor (Homo sapiens, UniProt P25021); experiment: PDSP primary binding, H2; settings: n = 4, read-out: Inhibition (primary binding competition efficacy), H2
T9 construct: purchased NIMH Psychoactive Drug Screening Program (PDSP)
T9 sequence (P25021 whole entry): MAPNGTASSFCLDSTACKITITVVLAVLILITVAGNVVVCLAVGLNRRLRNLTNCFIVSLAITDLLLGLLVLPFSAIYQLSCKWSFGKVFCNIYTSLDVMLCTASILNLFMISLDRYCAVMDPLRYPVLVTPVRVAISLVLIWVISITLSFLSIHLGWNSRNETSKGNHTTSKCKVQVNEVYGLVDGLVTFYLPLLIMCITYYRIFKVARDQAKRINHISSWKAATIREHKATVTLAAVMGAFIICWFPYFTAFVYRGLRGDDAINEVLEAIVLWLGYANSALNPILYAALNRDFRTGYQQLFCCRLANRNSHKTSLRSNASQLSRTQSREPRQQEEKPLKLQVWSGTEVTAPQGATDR
Description: as §1, §2

V1A = target: T10, V1A (Homo sapiens, UniProt P37288); experiment: PDSP primary binding, V1A; settings: n = 4, read-out: Inhibition (primary binding competition efficacy), V1A
T10 construct: purchased NIMH Psychoactive Drug Screening Program (PDSP)
Description: as §1, §2

[3] = target: T11, human muscle-type α1β1γδ-nAChR (Homo sapiens, UniProt P02708+P07510+Q07001); experiment: 86Rb+ ion efflux assay, TE671/RD cells; assay type: cell-based; settings: 86Rb+ ion flux assay
T11 construct: TE671/RD naturally expresses human muscle-type α1*-nAChRs; endogenous in cells; host or cells: TE671/RD human clonal cell line
T11 sequence (P02708 21-457): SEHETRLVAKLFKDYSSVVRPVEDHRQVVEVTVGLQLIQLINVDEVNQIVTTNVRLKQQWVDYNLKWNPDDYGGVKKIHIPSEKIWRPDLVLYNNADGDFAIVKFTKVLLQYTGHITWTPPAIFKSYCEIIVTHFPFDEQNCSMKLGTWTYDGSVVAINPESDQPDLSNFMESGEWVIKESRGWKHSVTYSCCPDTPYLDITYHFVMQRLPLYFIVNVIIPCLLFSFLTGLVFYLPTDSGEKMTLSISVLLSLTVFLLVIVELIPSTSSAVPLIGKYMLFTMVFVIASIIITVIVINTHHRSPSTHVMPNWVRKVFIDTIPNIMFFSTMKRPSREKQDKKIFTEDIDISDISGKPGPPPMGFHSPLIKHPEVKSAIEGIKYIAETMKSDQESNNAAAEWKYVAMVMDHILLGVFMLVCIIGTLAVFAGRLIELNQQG
T11 sequence (P11230 24-501 partner): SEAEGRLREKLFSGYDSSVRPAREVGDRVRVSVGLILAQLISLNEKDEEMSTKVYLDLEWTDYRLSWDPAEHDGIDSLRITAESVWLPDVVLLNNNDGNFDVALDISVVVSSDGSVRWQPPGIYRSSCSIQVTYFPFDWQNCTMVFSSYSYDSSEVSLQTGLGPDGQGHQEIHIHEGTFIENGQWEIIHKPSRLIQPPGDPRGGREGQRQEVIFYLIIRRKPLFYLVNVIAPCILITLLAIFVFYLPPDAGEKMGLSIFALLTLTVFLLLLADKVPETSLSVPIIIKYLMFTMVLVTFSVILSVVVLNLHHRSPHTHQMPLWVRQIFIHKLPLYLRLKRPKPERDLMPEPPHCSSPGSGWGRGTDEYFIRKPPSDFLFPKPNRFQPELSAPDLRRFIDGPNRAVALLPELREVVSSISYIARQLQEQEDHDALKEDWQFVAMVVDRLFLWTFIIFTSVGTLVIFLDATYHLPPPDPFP
T11 sequence (P07510 23-517): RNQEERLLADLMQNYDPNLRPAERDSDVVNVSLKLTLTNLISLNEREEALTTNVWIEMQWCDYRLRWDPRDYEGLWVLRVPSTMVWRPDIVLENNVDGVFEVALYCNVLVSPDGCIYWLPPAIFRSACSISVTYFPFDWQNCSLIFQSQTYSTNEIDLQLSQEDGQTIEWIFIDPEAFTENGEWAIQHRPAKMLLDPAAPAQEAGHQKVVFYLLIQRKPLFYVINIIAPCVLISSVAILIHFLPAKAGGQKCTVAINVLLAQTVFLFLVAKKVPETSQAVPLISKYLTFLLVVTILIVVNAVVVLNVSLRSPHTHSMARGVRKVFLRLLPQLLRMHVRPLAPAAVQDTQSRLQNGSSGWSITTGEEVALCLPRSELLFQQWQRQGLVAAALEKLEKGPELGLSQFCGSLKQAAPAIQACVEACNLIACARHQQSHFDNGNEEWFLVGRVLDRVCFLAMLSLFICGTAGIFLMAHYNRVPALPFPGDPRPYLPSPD
T11 sequence (Q07001 22-517): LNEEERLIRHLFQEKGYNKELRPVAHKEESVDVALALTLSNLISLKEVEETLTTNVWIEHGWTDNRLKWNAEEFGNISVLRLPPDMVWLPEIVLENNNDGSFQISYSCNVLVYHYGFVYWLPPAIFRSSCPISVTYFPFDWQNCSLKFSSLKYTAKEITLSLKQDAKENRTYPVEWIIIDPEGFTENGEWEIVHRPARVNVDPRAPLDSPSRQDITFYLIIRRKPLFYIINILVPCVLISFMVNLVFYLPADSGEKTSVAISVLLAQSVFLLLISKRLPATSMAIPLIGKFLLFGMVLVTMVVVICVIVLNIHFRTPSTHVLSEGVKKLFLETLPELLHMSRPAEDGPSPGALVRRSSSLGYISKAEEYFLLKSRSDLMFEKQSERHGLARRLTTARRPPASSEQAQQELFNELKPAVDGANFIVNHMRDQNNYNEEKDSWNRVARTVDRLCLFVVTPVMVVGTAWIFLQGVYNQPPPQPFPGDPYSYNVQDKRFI
From the text: Cell lines naturally or heterologously expressing specific, functional, human nAChR subtypes were used. The human clonal cell line TE671/RD naturally expresses human muscle-type α1*-nAChRs, containing α1, β1, γ, and δ subunits, with function detectable using ^86Rb^+ efflux assays. […] These cells heterologously express human nAChR chimeric (α6/3) subunits (wherein the extracellular, N-terminal, ligand-binding domain of the human nAChR α6 subunit replaces that domain in the nAChR α3 subunit) along with human β2 and β3 subunits. […] Cells were passaged once a week by splitting just-confluent cultures 1/300 (TE671/RD), 1/10 (SH-SY5Y), or 1/40 (transfected SH-EP1) in serum-supplemented medium to maintain log-phase growth.
One newer modification on these techniques involves low temperature incubation before assays to increase the surface expression of high sensitivity (HS) relative to low sensitivity (LS) α4β2 nAChRs and to enhance surface expression of (α6/3)β2β3-nAChRs. […] In brief, this allows us to determine efficacies of test compounds at LS and HS α4β2 nAChRs, respectively, as the ordinate values of the linear regressions at abscissa values of 0% and 100% of sazetidine-A efficacy.
Results are normalized to responses to a fully efficacious concentration of carbamylcholine (see Materials and Methods for details). […]

[4] = Metabolic stability, liver microsomes, mouse; assay type: in vitro ADME; settings: CD-1, 1.0E-06 M, 1 h
[5] = Metabolic stability, liver microsomes, human; assay type: in vitro ADME; settings: 1.0E-06 M, 1 h
CYP3A = CYP3A inhibition, HLM, midazolam substrate; assay type: in vitro ADME, human; settings: 1.0E-05 M
From the text: Supplement prp20002-e00026-sd1.doc, table 3: Table 3.

[6] = Bacterial cytotoxicity, strain TA98; assay type: cell-based; settings: Salmonella typhimurium, bacterial tester strain TA98 without S9, read-out: Cytotoxicity (% of Control Values)
From the text: Supplement prp20002-e00026-sd1.doc, table 4: Table 4.

[7] = Plasma and brain levels after NSF (UHPLC-MS-MS); assay type: in vivo, mouse
Description: The chamber floor is covered with bedding (∼0.5″). […] Samples are stored at −80°C until analysis.
Compound LF-3-99 (10 ng/mL, See Fig. S1 for structure) was used as an internal standard.

C57/BL6J mice = experiment: Preliminary acute maximum tolerated dose study; assay type: in vivo, mouse
α7* nAChR = settings: ref Yu et al. [2012], cited from earlier work
[8] = set-up: method as in Yuan et al. [2013]; settings: ref Yuan et al. [2013]; cited from earlier work
Balb/CJ mice = experiment: Acute toxicity / mortality in Balb/C mice; settings: 300 mg/kg, wild-type Balb/CJ mice
[9] = 5 mg/kg p.o., day 29, about 50-60 min after pretreatment

T1 sequence (P46098 24-478): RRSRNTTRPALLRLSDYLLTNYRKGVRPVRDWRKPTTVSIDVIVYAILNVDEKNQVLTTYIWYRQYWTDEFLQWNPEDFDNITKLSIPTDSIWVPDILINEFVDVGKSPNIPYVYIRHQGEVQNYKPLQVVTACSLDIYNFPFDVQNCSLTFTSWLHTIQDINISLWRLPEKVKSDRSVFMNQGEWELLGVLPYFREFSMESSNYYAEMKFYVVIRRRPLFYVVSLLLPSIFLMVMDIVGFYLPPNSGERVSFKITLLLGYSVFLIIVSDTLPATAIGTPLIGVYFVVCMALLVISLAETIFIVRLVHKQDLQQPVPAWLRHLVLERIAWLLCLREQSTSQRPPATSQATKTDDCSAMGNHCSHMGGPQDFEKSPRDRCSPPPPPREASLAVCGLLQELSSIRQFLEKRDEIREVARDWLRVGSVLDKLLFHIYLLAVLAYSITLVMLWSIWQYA

SMILES: OCCc1cc(-c2cncc(OC[C@@H]3CCN3)c2)on1 [LF-3-88, 2-[5-[5-(2(S)-azetidinylmethoxyl)-3-pyridyl]-3-isoxazolyl]ethanol]
- inhibition at 10 µM (5-HT3): -1%
- inhibition at 10 µM (D4 dopamine receptor): -2.5%
- inhibition at 10 µM (D5 dopamine receptor): 5.8%
- inhibition at 10 µM [1]: 5.9%
- inhibition at 10 µM [2]: 3%
- inhibition at 10 µM (M2 muscarinic receptor): 6.8%
- inhibition at 10 µM (M4 muscarinic receptor): -3.6%
- inhibition at 10 µM (H1 histamine receptor): -6%
- inhibition at 10 µM (H2 histamine receptor): 39.5%
- inhibition at 10 µM (V1A): 24.7%
- agonist or antagonist activity at muscle-type α1β1γδ-nAChRs [3]: no significant agonist or antagonist activity
- Remaining (metabolic stability) [4]: 81%
- Remaining (metabolic stability) [5]: 89%
- CYP3A Inhibition (CYP3A): 1%
- viability at 0.0001 M ([6]; strain TA98 – S9, 1.0E-04 M): 108%
- viability at 10 µM ([6]; strain TA98 – S9, 1.0E-05 M): 92%
- viability at 1.25 µM ([6]; strain TA98 – S9, 1.25E-06 M): 95%
- viability at 25 µM ([6]; strain TA98 – S9, 2.5E-05 M): 94%
- viability at 2.5 µM ([6]; strain TA98 – S9, 2.5E-06 M): 98%
- viability at 50 µM ([6]; strain TA98 – S9, 5.0E-05 M): 102%
- viability at 5 µM ([6]; strain TA98 – S9, 5.0E-06 M): 96%
- viability at 625 nM ([6]; strain TA98 – S9, 6.25E-07 M): 97%
- Plasma level [7, 9]: 430 ± 172 ng/mL
- brain level [7, 9]: 14 ± 4 ng/g
- Plasma level ([7]; 10 mg/kg p.o., day 29): 942 ± 400 ng/mL
- brain level ([7]; 10 mg/kg p.o., day 29): 31 ± 11 ng/g
- dose above which temperature and active behaviors temporarily decreased (C57/BL6J mice; acute): above 100 mg/kg
- serious toxic side effects or mortality (C57/BL6J mice; up to 300 mg/kg): no serious toxic side effects or mortality
- Ki (α7* nAChR; Figure 1): > 10 µM
- Ki α7* (α7* nAChR; rat forebrain, class symbol): NA (NA: not active, defined as < 50% binding in the primary assay at 10 μmol/L)
- absorption and blood-brain barrier crossing in vivo [8]: absorbed rapidly and crossed the blood–brain barrier
- mortality (Balb/CJ mice): no mortality
